Assay results: patent US12338256B2, “Aza-tetracyclic oxazepine compounds and uses thereof” (Genentech, Inc., priority 2022, dated 2025)
pIC50: −log10 of the molar value.

Assays:
[1] = test system: HPAC (homozygous mutant KRAS G12D human pancreatic cell line); assay: KRAS 3D-Cell Proliferation Assay, HPAC (Example 503); assay type: cell-based; conditions: Homo sapiens, HPAC, 168 h, HPAC 3D culture, 7 days, CellTiter-Glo 3D; read-out: Prolif HPAC 3D ATP IC50
Summary of the method: (§1)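 3D culture, ultra-low attachment wells; RPMI-1640/10% FBS/2 mM L-glutamine. Overnight settle, then compound series, 0.3% DMSO final, 7 d, 37° C, 5% CO2. Readout: CellTiter-Glo 3D luminescence. % inhibition vs DMSO (0%) and 1 μM staurosporine (100%); IC50 via 4-parameter Hill.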

[2] = test system: H1975 (KRAS wild type human lung adenocarcinoma cell line); assay: KRAS 3D-Cell Proliferation Assay, H1975 (Example 503); assay type: cell-based; conditions: Homo sapiens, NCI-H1975, 168 h, H1975 3D culture, 7 days, CellTiter-Glo 3D; read-out: Prolif H1975 3D ATP IC50
Summary of the method: as §1

`Cc1nc(N)cc(-c2nc3c4c(nc(OCC5(CN6CC(C(F)F)C6)CC5)nc4c2F)N2C[C@H]4CC[C@H](N4)[C@H]2[C@H](C)O3)c1C(F)(F)F` [Compound 274, 4-((5S,5aS,6S,9R)-12-((1-((3-(difluoromethyl)90eptalene-1-yl)methyl)cyclopropyl)methoxy)-1-fluoro-5-methyl-5a,6,7,8,9,10-hexahydro-5H-4-oxa-3,10a,11,13,14-pentaaza-6,9-methanonaphtho[1,8-ab]heptalene-2-yl)-6-methyl-5-(trifluoromethyl)pyridin-2-amine] was tested. Which pIC50 [1] did it give?
Its pIC50 is 8.12.

And the pIC50 [2]?
The pIC50 was 5.97.

`CO[C@@H]1CCN(CC2(COc3nc4c5c(nc(-c6cc(N)nc(C)c6C(F)(F)F)c(F)c5n3)O[C@@H](C)[C@@H]3[C@@H]5CC[C@H](CN43)N5)CC2)C[C@@H]1F` [Compound 275, 4-((5S,5aS,6S,9R)-1-fluoro-12-((1-(((3S,4R)-3-fluoro-4-methoxypiperidin-1-yl)methyl)cyclopropyl)methoxy)-5-methyl-5a,6,7,8,9,10-hexahydro-5H-4-oxa-3,10a,11,13,14-pentaaza-6,9-methanonaphtho[1,8-ab]heptalene-2-yl)-6-methyl-5-(trifluoromethyl)pyridin-2-amine] was tested. Which pIC50 [1] did it give?
Its pIC50 is 8.48.

And the pIC50 [2]?
The pIC50 was 5.29.

With `Cc1nc(N)cc(-c2nc3c4c(nc(OCC5(CN6CCC(C(F)F)C6)CC5)nc4c2F)N2C[C@H]4CC[C@H](N4)[C@H]2[C@H](C)O3)c1C(F)(F)F` (stereo partly drawn) [Compound 276, 4-((5S,5aS,6S,9R)-12-((1-((3-(difluoromethyl)pyrrolidin-1-yl)methyl)cyclopropyl)methoxy)-1-fluoro-5-methyl-5a,6,7,8,9,10-hexahydro-5H-4-oxa-3,10a,11,13,14-pentaaza-6,9-methanonaphtho[1,8-ab]heptalen-2-yl)-6-methyl-5-(trifluoromethyl)pyridin-2-amine] as the molecule, how does the pIC50 [1] read?
The pIC50 was 8.74.

And the pIC50 [2]?
The pIC50 was 5.79.

How did the pIC50 [1] turn out when `Cc1nc(N)cc(-c2nc3c4c(nc(OCC5(CN6CC7(C6)CC7(F)F)CC5)nc4c2F)N2C[C@H]4CC[C@H](N4)[C@H]2[C@H](C)O3)c1C(F)(F)F` [Compound 277, 4-((5S,5aS,6S,9R)-12-((1-((1,1-difluoro-5-azaspiro[2.3]hexan-5-yl)methyl)cyclopropyl)methoxy)-1-fluoro-5-methyl-5a,6,7,8,9,10-hexahydro-5H-4-oxa-3,10a,11,13,14-pentaaza[6,9]methanonaphtho[1,8-ab]heptalene-2-yl)-6-methyl-5-(trifluoromethyl)pyridin-2-amine] was run?
The pIC50 was 8.68.

And the pIC50 [2]?
Its pIC50 is 6.01.

What does the source list for `Cc1nc(N)cc(-c2nc3c4c(nc(OCC5(CN6CCC7(C6)CC7(F)F)CC5)nc4c2F)N2C[C@H]4CC[C@H](N4)[C@H]2[C@H](C)O3)c1C(F)(F)F` (stereo partly drawn) [Compound 279, 4-((5S,5aS,6S,9R)-12-((1-((1,1-difluoro-5-azaspiro[2.4]heptan-5-yl)methyl)cyclopropyl)methoxy)-1-fluoro-5-methyl-5a,6,7,8,9,10-hexahydro-5H-4-oxa-3,10a,11,13,14-pentaaza[6,9]methanonaphtho[1,8-ab]heptalene-2-yl)-6-methyl-5-(trifluoromethyl)pyridin-2-amine]?
pIC50 [1]: 8.69; pIC50 [2]: 5.90

How did the pIC50 [1] turn out when `Cc1nc(N)cc(-c2nc3c4c(nc(OCC5(CN6CC7CCOC7C6)CC5)nc4c2F)N2C[C@H]4CC[C@H](N4)[C@H]2[C@H](C)O3)c1C(F)(F)F` (stereo partly drawn) [Compound 280, 4-((5S,5aS,6S,9R)-1-fluoro-12-((1-((hexahydro-5H-furo[2,3-c]pyrrol-5-yl)methyl)cyclopropyl)methoxy)-5-methyl-5a,6,7,8,9,10-hexahydro-5H-4-oxa-3,10a,11,13,14-pentaaza-6,9-methanonaphtho[1,8-ab]heptalene-2-yl)-6-methyl-5-(trifluoromethyl)pyridin-2-amine] was run?
The pIC50 was 8.75.

And the pIC50 [2]?
Its pIC50 is 5.87.

`Cc1nc(N)cc(-c2nc3c4c(nc(OCC5(CN6CC7(CCCO7)C6)CC5)nc4c2F)N2C[C@H]4CC[C@H](N4)[C@H]2[C@H](C)O3)c1C(F)(F)F` [Compound 281, 4-((5S,5aS,6S,9R)-12-((1-((5-oxa-2-azaspiro[3.4]octan-2-yl)methyl)cyclopropyl)methoxy)-1-fluoro-5-methyl-5a,6,7,8,9,10-hexahydro-5H-4-oxa-3,10a,11,13,14-pentaaza[6,9]methanonaphtho[1,8-ab]heptalene-2-yl)-6-methyl-5-(trifluoromethyl)pyridin-2-amine] was tested. Which pIC50 [1] did it give?
The pIC50 was 8.07.

What about the pIC50 [2] of the same molecule?
The pIC50 was 5.61.

With `Cc1nc(N)cc(-c2nc3c4c(nc(OCC5(CN6CCCC67CCOC7)CC5)nc4c2F)N2C[C@H]4CC[C@H](N4)[C@H]2[C@H](C)O3)c1C(F)(F)F` (stereo partly drawn) [Compound 282, 4-((5S,5aS,6S,9R)-12-((1-((7-oxa-1-azaspiro[4.4]nonan-1-yl)methyl)cyclopropyl)methoxy)-1-fluoro-5-methyl-5a,6,7,8,9,10-hexahydro-5H-4-oxa-3,10a,11,13,14-pentaaza[6,9]methanonaphtho[1,8-ab]heptalene-2-yl)-6-methyl-5-(trifluoromethyl)pyridin-2-amine] as the molecule, how does the pIC50 [1] read?
Its pIC50 is 8.40.

And the pIC50 [2]?
Its pIC50 is 5.61.

How did the pIC50 [1] turn out when `Cc1nc(N)cc(-c2nc3c4c(nc(OCC5(CN6CC[C@H](F)C6)CC5)nc4c2F)N2C[C@H]4CC[C@H](N4)[C@H]2[C@H](C)O3)c1C(F)(F)F` [Compound 283, 4-((5S,5aS,6S,9R)-1-fluoro-12-((1-(((S)-3-fluoropyrrolidin-1-yl)methyl)cyclopropyl)methoxy)-5-methyl-5a,6,7,8,9,10-hexahydro-5H-4-oxa-3,10a,11,13,14-pentaaza-6,9-methanonaphtho[1,8-ab]heptalene-2-yl)-6-methyl-5-(trifluoromethyl)pyridin-2-amine] was run?
Its pIC50 is 8.80.

What about the pIC50 [2] of the same molecule?
The pIC50 was 6.24.

With `Cc1nc(N)cc(-c2nc3c4c(nc(OCC5(CN6CC[C@@H](F)C6)CC5)nc4c2F)N2C[C@H]4CC[C@H](N4)[C@H]2[C@H](C)O3)c1C(F)(F)F` [Compound 284, 4-((5S,5aS,6S,9R)-1-fluoro-12-((1-(((R)-3-fluoropyrrolidin-1-yl)methyl)cyclopropyl)methoxy)-5-methyl-5a,6,7,8,9,10-hexahydro-5H-4-oxa-3,10a,11,13,14-pentaaza-6,9-methanonaphtho[1,8-ab]heptalen-2-yl)-6-methyl-5-(trifluoromethyl)pyridin-2-amine] as the molecule, how does the pIC50 [1] read?
The pIC50 was 8.91.

What about the pIC50 [2] of the same molecule?
Its pIC50 is 6.31.

What does the source list for `Cc1nc(N)cc(-c2nc3c4c(nc(OCC5(CN6CC7(CCC7(F)F)C6)CC5)nc4c2F)N2C[C@H]4CC[C@H](N4)[C@H]2[C@H](C)O3)c1C(F)(F)F` [Compound 285, 4-((5S,5aS,6S,9R)-12-((1-((5,5-difluoro-2-azaspiro[3.3]heptan-2-yl)methyl)cyclopropyl)methoxy)-1-fluoro-5-methyl-5a,6,7,8,9,10-hexahydro-5H-4-oxa-3,10a,11,13,14-pentaaza[6,9]methanonaphtho[1,8-ab]heptalene-2-yl)-6-methyl-5-(trifluoromethyl)pyridin-2-amine]?
pIC50 [1]: 8.52; pIC50 [2]: 6.22

With `Cc1nc(N)cc(-c2nc3c4c(nc(OCC5(CN6CCC7(CCCO7)C6)CC5)nc4c2F)N2C[C@H]4CC[C@H](N4)[C@H]2[C@H](C)O3)c1C(F)(F)F` (stereo partly drawn) [Compound 287, 4-((5S,5aS,6S,9R)-12-((1-((1-oxa-7-azaspiro[4.4]nonan-7-yl)methyl)cyclopropyl)methoxy)-1-fluoro-5-methyl-5a,6,7,8,9,10-hexahydro-5H-4-oxa-3,10a,11,13,14-pentaaza[6,9]methanonaphtho[1,8-ab]heptalene-2-yl)-6-methyl-5-(trifluoromethyl)pyridin-2-amine] as the molecule, how does the pIC50 [1] read?
The pIC50 was 8.24.

What about the pIC50 [2] of the same molecule?
Its pIC50 is 5.86.

`Cc1nc(N)cc(-c2nc3c4c(nc(OCC5(CN6CCC(F)(F)C6)CC5)nc4c2F)N2C[C@H]4CC[C@H](N4)[C@H]2[C@H](C)O3)c1C(F)(F)F` [Compound 288, 4-((5S,5aS,6S,9R)-12-((1-((3,3-difluoropyrrolidin-1-yl)methyl)cyclopropyl)methoxy)-1-fluoro-5-methyl-5a,6,7,8,9,10-hexahydro-5H-4-oxa-3,10a,11,13,14-pentaaza-6,9-methanonaphtho[1,8-ab]heptalene-2-yl)-6-methyl-5-(trifluoromethyl)pyridin-2-amine] was tested. Which pIC50 [1] did it give?
Its pIC50 is 7.73.

What about the pIC50 [2] of the same molecule?
The pIC50 was 5.01.

Which results are given for `Cc1nc(N)cc(-c2nc3c4c(nc(OCC5(CN6CC(C)(F)C6)CC5)nc4c2F)N2C[C@H]4CC[C@H](N4)[C@H]2[C@H](C)O3)c1C(F)(F)F` [Compound 289, 4-((5S,5aS,6S,9R)-1-fluoro-12-((1-((3-fluoro-3-methylazetidin-1-yl)methyl)cyclopropyl)methoxy)-5-methyl-5a,6,7,8,9,10-hexahydro-5H-4-oxa-3,10a,11,13,14-pentaaza-6,9-methanonaphtho[1,8-ab]heptalene-2-yl)-6-methyl-5-(trifluoromethyl)pyridin-2-amine]?
pIC50 [1]: 8.50; pIC50 [2]: 6.24

Which results are given for `CO[C@@H]1CN(CC2(COc3nc4c5c(nc(-c6cc(N)nc(C)c6C(F)(F)F)c(F)c5n3)O[C@@H](C)[C@@H]3[C@@H]5CC[C@H](CN43)N5)CC2)C[C@@H]1F` [Compound 290, 4-((5S,5aS,6S,9R)-1-fluoro-12-((1-(((3S,4R)-3-fluoro-4-methoxypyrrolidin-1-yl)methyl)cyclopropyl)methoxy)-5-methyl-5a,6,7,8,9,10-hexahydro-5H-4-oxa-3,10a,11,13,14-pentaaza-6,9-methanonaphtho[1,8-ab]heptalen-2-yl)-6-methyl-5-(trifluoromethyl)pyridin-2-amine]?
pIC50 [1]: 8.60; pIC50 [2]: 5.56
